The values that follow come from paper PMC6770581, “New Thalidomide-Resembling Dicarboximides Target ABC50 Protein and Show Antileukemic and Immunomodulatory Activities” (Biomolecules, 2019).

The structures appear in SMILES notation.

One assay concerns caspases 8/9. The assay can be described thus: Caspase-Glo 8 and 9 luminescent activity assay in MOLT-4 cells. It is filed as cell-based, human. The conditions noted are these: MOLT-4, 5× IC50, 3 h, control 1% DMSO = 1.0. As for the experimental part: Louis, MO). The induction of cell apoptosis was analyzed by Apo-ONE® Homogeneous Caspase-3/7 Assay (Promega, Madison, WI, USA). […] The fluorescence in each well was measured in triplicate (excitation at 485 nm, emission measured at 520 nm) using a microplate reader FLUOStar Omega (BMG-Labtech, Offenburg, Germany). For normalization of the data, the caspase activity in the control cells (exposed to 1% DMSO) was taken as 1.0. […] Luminescence was measured (in triplicate) using a microplate reader FLUOStar Omega. For normalization of the data, the caspase activity in the control cells (exposed to 1% DMSO) was taken as 1.0.

The next assay has as its system HL-60 cells. The conditions noted are these: 48 h, MTT, mean ± SD; cited from earlier work.
A further assay deals with K562 cells. Description: Annexin V/PI or 7-AAD flow cytometry of apoptosis, K562. It is filed as cell-based, human. As to conditions: K562, 5× IC50 (3 10 µM, 6 5 µM, 5 5 µM), staurosporine 1 µM; different incubation times for 3, 6 and 5. As to the method: The phosphatidylserine on the extracellular side of cell membranes was quantified using an FITC Annexin V Apoptosis Detection Kit I (BD Pharmingen, San Diego, CA, USA) according to the manufacturer’s instruction. 10^6 cells were seeded on a 6-well plate (Nunc). […] The control cells were exposed to 1% DMSO or 1μM staurosporine. After treatment the cells were centrifuged at 700 rpm (120× g) for 5 min, washed twice with cold PBS and then resuspended in 1x binding buffer to a density of 10^6 cells/ml. 100 µL of the resuspended cells was stained in the dark with 5 μl of Annexin V-fluoroscein isothiocyanate (FITC) solution and 10 µL propidium iodide (PI) solution for 15 min at room temperature. The samples were then diluted with 400 μL of a binding buffer and within 1 h analyzed with a flow cytometer (BD FACSCalibur^TM, BD Biosciences, San Jose, CA, USA). After treatment, four populations of cells were assessed: (1) viable (neither apoptotic nor necrotic, Annexin V-FITC and PI negative), (2) apoptotic (Annexin V-FITC positive and PI negative), (3) late apoptotic (Annexin V-FITC and PI positive), and (4) necrotic (Annexin V-FITC negative and PI positive).
0.15 × 10^6 cells/ml were seeded on a 6-well plate (Nunclon, Thermo Fisher Scientific, Waltham, MA, USA). Following 24 h preincubation the cells were treated with either the compound or 1% DMSO (control) for 24 or 48 h. After indicated time, the cells were washed with cold PBS (w/o Mg^2+, Ca^2+), stained with Annexin V (FITC Annexin V Apoptosis Detection Kit with 7-aminoactinomycin D (7-AAD), Biolegend, San Diego, CA, USA) according to manufacturer instructions and analysed using BD FACSCalibur flow cytometer. Obtained Flow Cytometry Standard files were analyzed using BD FACSDiva Software (FACSDiva Version 6.1.3, Becton Dickinson Biosciences, San Jose, CA, USA). The experiment was performed three times in at least two technical replicates.
(A flow cytometer gives signals particle by particle.)

The next assay concerns HeLa cells. As to conditions: 48 h, MTT, mean ± SD; cited from earlier work.
In a further assay the test system is CFPAC cells. The assay can be described thus: MTT cytotoxicity assay, CFPAC. Format: cell-based. The conditions noted are these: Homo sapiens, 48 h, mean ± SD. As for the experimental part:
Human umbilical vein endothelial cells (purchased from Life Technologies, Carlsbad, CA, USA) were cultured according to the manufacturer’s instructions in Medium 200 supplemented with Low Serum Growth Supplement. 1 × 10^4 cells were seeded on each well on a 96-well plate (Nunc, Roskilde, Denmark). The HeLa (human cervix carcinoma, cat. #93021013), CFPAC (human pancreatic adenocarcinoma, cat. #91112501), K562 (chronic myelogenous leukemia, cat. #89121407), HL-60 (acute myelogenous leukemia, cat. #98070106), and MOLT-4 (Human acute T lymphoblastic leukemia, cat. #85011413) cells were purchased from European Collection of Authenticated Cell Cultures (ECACC). They were cultured in an RPMI 1640 medium supplemented with antibiotics (streptomycin, penicillin) and 10% fetal calf serum (20% for HL60), in a 5% CO2-95% air atmosphere. 7 × 10^3 cells were seeded on each well on a 96-well plate (Nunc). 24 hours later the cells were exposed to the test compounds. The aliquots of stock solutions of the test compounds (freshly prepared in DMSO) were added to the cell cultures to yield final concentrations of 1, 10^−1, 10^−2, 10^−3, 10^−4, and 10^−5 mM. The concentration of DMSO in the cell culture medium was 1%. The IC50 value (the concentration of a test compound required to reduce the cell survival fraction to 50% of the control) was calculated from a dose-response curve and used as a measure of cellular sensitivity to a given treatment. The IC50 values are given as means (± standard deviation (SD)) from 2 independent experiments with 4 technical replicates. The cytotoxicity of all compounds was determined by the MTT (3-(4,5-dimethylthiazol-2-yl)-2,5-diphenyltetrazolium bromide) assay (Sigma, St. Louis, MO, USA). Briefly, after 24 h or 48 h of incubation with a given compound, the cells were treated with the MTT reagent and incubation was continued for 2 h. MTT-formazan crystals were dissolved in 20% SDS and 50% DMF at pH 4.7 and VIS light absorption was measured at 570 and 650 nm on a microplate reader FLUOstar Omega (BMG Labtech, Offenburg, Germany). As a control (100% viability), cells grown in the presence of 1% DMSO were used.

A word on the IC50: it is the concentration needed to halve the response being measured. As for `CCC12C(=O)C(CC)(C(c3ccccc3)=C1c1ccccc1)C1C(=O)N(CCN3CCCCC3)C(=O)C12` (centres unmarked) [Compound 3], the “activation of caspases 8/9 compared to the control” value with caspases 8/9 is on record as “more than 10 fold”. Also, the IC50 in the assay on HL-60 cells is above 100 µM; with HeLa cells, above 100 µM; in the assay on CFPAC cells it was above 1000 µM. For the same molecule, the “apoptotic cells, early (LR) and late (UR)” value (from here on “apoptotic cells, early”) with K562 cells is “about 44%”.
In the case of `CCC12C(=O)C(CC)(C(c3ccccc3)=C1c1ccccc1)C1C(=O)N(CC(O)CNC(C)C)C(=O)C12` (centres unmarked) [Compound 5], the results for the IC50 in the assay on HL-60 cells, in the assay on HeLa cells and in the assay with CFPAC cells were 2 ± 0.05 µM, above 100 µM and above 1000 µM, respectively. Besides, the “apoptotic cells, early” value in the assay on K562 cells is reported as “more than 90%”.
In the case of `CN(C)CCN1C(=O)C2C(C1=O)C1(c3ccccc3)CC2(c2ccccc2)C(c2ccccc2)=C1c1ccccc1` (centres unmarked) [Compound 6], the “activation of caspases 8/9 compared to the control” value with caspases 8/9 is given as “more than 10 fold”. For the same molecule, the IC50 in the assay with HL-60 cells was 5 ± 0.24 µM; in the assay on HeLa cells, 1 ± 0.2 µM; in the assay with CFPAC cells it was 40 ± 3.1 µM. Moreover, the “apoptotic cells, early” value with K562 cells is “more than 90%”.
